Legend:
[1] = system: eIF2α in HEK293-EGFP-eIF2α cells; assay: PERK Cellular Assay (HEK293-EGFP-eIF2α cells, tunicamycin-induced ER stress, TR-FRET); type: cell-based; conditions: tunicamycin 2 hours
Method: Stable cell lines were created in HEK293 cells using lentiviral particles harboring an expression vector for GFP-eIF2α. Cells were selected using puromycin and enriched using fluorescence activated cell sorting against GFP. HEK293-EGFP-eIF2α cells were plated at 5000 cells/well in 384-well assay plates and incubated overnight at 37° C., 5% CO2. Inhibitor compounds were added to the wells by Echo acoustic dispensing and incubated for 30 minutes at 37° C., 5% CO2 prior to induction of ER stress by addition of tunicamycin to […] for 2 hours. Cells were lysed and TR-FRET was measured in an EnVision plate reader (PerkinElmer). FRET ratio data was normalized to signal from lysates treated with DMSO vehicle control and plotted as percent inhibition against 10-point; 3-fold dilution series of inhibitors. IC50 values were calculated using 4-parameter logistical fitting in XLFit.

[2] = target: Recombinant human EIF2AK3 (PERK) catalytic domain (amino acids 536-1116) (Homo sapiens (Human), UniProt Q9NZJ5); assay: PERK In Vitro Activity Assay (isolated), TR-FRET kinase assay; conditions: isolated PERK enzyme, 1.5 μM ATP, read-out: Biochemical IC50
Description: PERK In Vitro Activity Assay (isolated):
In vitro Inhibition of PERK Enzyme Activity (isolated) Recombinant human EIF2AK2 (PKR) catalytic domain (amino acids 252-551), EIF2AK3 (PERK) catalytic domain (amino acids 536-1116), GFP-eIF2a substrate, and Terbium-labelled phospho-eIF2a antibody is obtained (Invitrogen, Carlsbad, CA).
Express and purify HIS-SUMO-GCN2 catalytic domain (amino acids 584-1019) from E. coli. Perform TR-FRET kinase assays in the absence or presence of inhibitors in a reaction buffer consisting of 50 mM HEPES, pH 7.5, 10 mM MgCb, 1.0 mM EGTA, and 0.01% Brij-35, and 100-200 nM GFP-eIF2a substrate. […] Add test compound, initiate the reaction by addition of enzyme, and incubate at room temperature for 45 minutes. Stop the reaction by addition of EDTA to a final concentration of 10 mM, add Terbium-labelled phospho-eIF2a antibody at a final concentration of 2 nM, and incubate for 90 minutes. Monitor the resulting fluorescence in an EnVison® Multilabel reader (PerkinElmer, Waltham, MA). Determine TR-FRET ratios and the resulting IC50 values using a 4-parameter nonlinear logistic equation as shown: Y=(A+((B−A)/(1+(C/x)AD)))) where, Y=% specific inhibition, A=Bottom of the curve, B=Top of the curve, C=absolute IC50 (concentration causing 50% inhibition), and D=hill slope.

Sequence of Recombinant human EIF2AK3 (PERK) catalytic domain (amino acids 536-1116) (Q9NZJ5 536-1116): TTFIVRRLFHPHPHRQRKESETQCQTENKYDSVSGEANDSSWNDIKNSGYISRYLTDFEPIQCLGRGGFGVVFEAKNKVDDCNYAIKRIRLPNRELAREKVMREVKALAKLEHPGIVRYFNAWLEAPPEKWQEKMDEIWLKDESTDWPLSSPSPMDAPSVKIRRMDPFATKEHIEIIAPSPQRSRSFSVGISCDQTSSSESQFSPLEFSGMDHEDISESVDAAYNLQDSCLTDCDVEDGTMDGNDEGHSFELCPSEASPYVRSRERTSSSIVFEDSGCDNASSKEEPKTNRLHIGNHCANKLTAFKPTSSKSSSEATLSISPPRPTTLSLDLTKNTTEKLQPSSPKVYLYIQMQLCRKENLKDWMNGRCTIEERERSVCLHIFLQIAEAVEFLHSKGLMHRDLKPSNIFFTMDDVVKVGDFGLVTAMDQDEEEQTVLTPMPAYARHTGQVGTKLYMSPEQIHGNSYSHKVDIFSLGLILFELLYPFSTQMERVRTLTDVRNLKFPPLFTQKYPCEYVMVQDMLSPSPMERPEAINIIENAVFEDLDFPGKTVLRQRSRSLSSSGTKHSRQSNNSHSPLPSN

Compound | IC50 [2] | IC50 ([1]; 2 h) | IC50 [1]
[2H]C([2H])([2H])c1nc(-c2ccc(NC(=O)C(O)c3cccc(C(F)(F)F)c3)c(F)c2F)c2c(N)ncc(Cl)n12 (centres unmarked) [Example 152, N-[4-[8-amino-5-chloro-3-(trideuteriomethyl)imidazo[1,5-a]pyrazin-1-yl]-2,3-difluoro-phenyl]-2-hydroxy-2-[3-(trifluoromethyl)phenyl]acetamide] | 0.001 to 0.025 µM |  | 0.001 to 0.025 µM
[2H]C([2H])([2H])c1nc(-c2ccc(NC(=O)C(O)c3cccc(C(F)(F)F)c3)nc2C)c2c(N)ncc(C)n12 (centres unmarked) [Example 175, N-[5-[8-amino-5-methyl-3-(trideuteriomethyl)imidazo[1,5-a]pyrazin-1-yl]-6-methyl-2-pyridyl]-2-hydroxy-2-[3-(trifluoromethyl)phenyl]acetamide] | 0.001 to 0.025 µM |  | 0.101 to 0.25 µM
Cc1cc(NC(=O)C(O)c2cccc(F)c2)c(F)cc1-c1nc(C)n2c(C)cnc(N)c12 (centres unmarked) [Example 65, N-(4-(8-amino-3,5-dimethylimidazo [1,5-a]pyrazin-1-yl)-2-fluoro-5-methylphenyl)-2-(3-fluorophenyl)-2-hydroxy-acetamide] | 0.001 to 0.025 µM |  | 0.001 to 0.025 µM
[2H]C([2H])([2H])c1nc(-c2ccc(NC(=O)C(O)c3cc(F)cc(C(F)(F)F)c3)c(F)c2F)c2c(N)ncc(C)n12 (centres unmarked) [Example 161, N-[4-[8-amino-5-methyl-3-(trideuteriomethyl)imidazo[1,5-a]pyrazin-1-yl]-2,3-difluoro-phenyl]-2-[3-fluoro-5-(trifluoromethyl)phenyl]-2-hydroxy-acetamide] | 0.001 to 0.025 µM |  | 0.101 to 0.25 µM

More lines, main results first:

IC50 [2] | Compound | IC50 ([1]; 2 h) | IC50 [1]
0.001 to 0.025 µM | [2H]C([2H])([2H])c1nc(-c2ccc(NC(=O)C(O)c3cccc(C(F)(F)F)c3)cc2F)c2c(N)ncc(Cl)n12 (centres unmarked) [Example 100, N-[4-[8-amino-5-chloro-3-(trideuteriomethyl)imidazo[1,5-a]pyrazin-1-yl]-3-fluoro-phenyl]-2-hydroxy-2-[3-(trifluoromethyl)phenyl]acetamide] | 0.001 to 0.025 µM | 
0.051 to 0.1 µM | [2H]C([2H])([2H])c1nc(-c2ccc(NC(=O)C(O)c3cccc(Cl)c3)c(F)c2F)c2c(N)nc(C)cn12 (centres unmarked) [Example 141, N-[4-[8-amino-6-methyl-3-(trideuteriomethyl)imidazo[1,5-a]pyrazin-1-yl]-2,3-difluoro-phenyl]-2-(3-chlorophenyl)-2-hydroxy-acetamide] |  | 0.501 to 1 µM
0.101 to 0.25 µM | Cc1cnc(N)c2c(-c3ccc(NC(=O)C(O)c4cccc(F)c4)cc3OC(F)(F)F)nc(C)n12 (centres unmarked) [Example 126, N-(4-(8-amino-3,5-dimethyl-imidazo[1,5-a]pyrazin-1-yl)-3-(trifluoromethoxy)phenyl)-2-(3-fluorophenyl)-2-hydroxyacetamide] |  | 0.501 to 1 µM
0.001 to 0.025 µM | [2H]C([2H])([2H])c1nc(-c2ccc(NC(=O)C(O)c3cccc(Cl)c3)cc2F)c2c(N)nc(C)cn12 (centres unmarked) [Example 80, N-[4-[8-amino-6-methyl-3-(trideuteriomethyl)imidazo[1,5-a]pyrazin-1-yl]-3-fluoro-phenyl]-2-(3-chlorophenyl)-2-hydroxy-acetamide] |  | 0.001 to 0.025 µM
0.101 to 0.25 µM | [2H]C([2H])([2H])c1nc(-c2ccc(NC(=O)C(O)c3cc(F)cc(C(F)(F)F)c3)cc2C)c2c(N)nc(C)cn12 (centres unmarked) [Example 53, N-[4-[8-amino-6-methyl-3-(trideuteriomethyl)imidazo[1,5-a]pyrazin-1-yl]-3-methyl-phenyl]-2-[3-fluoro-5-(trifluoromethyl)phenyl]-2-hydroxy-acetamide] |  | 0.501 to 1 µM
0.026 to 0.05 µM | [2H]C([2H])([2H])c1nc(-c2ccc(NC(=O)C(O)c3cccc(C(F)(F)F)c3)cc2F)c2c(N)ncc(C(F)(F)F)n12 (centres unmarked) [Example 99, N-[4-[8-amino-3-(trideuteriomethyl)-5-(trifluoromethyl)imidazo[1,5-a]pyrazin-1-yl]-3-fluoro-phenyl]-2-hydroxy-2-[3-(trifluoromethyl)phenyl]acetamide] |  | 0.101 to 0.25 µM

Reference: US12331054B2, “Perk inhibiting imidazolopyrazine compounds” (HiberCell, Inc., priority 2019, dated 2025)
